Legend:
Assay in all cases: MTT microplate growth inhibition (MIC50) in MH culture medium
Format in all cases: cell-based
Settings in all cases: 96-well plate, 37° C., 24 h, OD 570 nm, unit not given, test concentrations given in μg·ML^−1
[1] = tested on: trichophyton mentagrophytes
Protocol: (§1) Bacteria (trichophylon rubrum, trichophyton mentagrophytes and epidermophyton fioccosum) are suspended in an MH culture medium with a dispersion concentration of about 10^5 cfu·ML^−1, and bacterium solution is added onto a 96-well plate (100 μL of the bacterium solution is added in each well); and the culture medium is taken as blank control, DMSO is taken as negative control for replacing a test substance, and itraconazole (Xian-Janssen Pharmaceutical Co., Ltd.) is taken as positive control. […] The 96-well plate is placed in an incubator at 37° C. and cultured for 24 h, then 25 μL of PBS containing 4 mg of MTT per mL is added in each well and cultured for 4 h under the same condition, and 100 μL of SDS lysate (95 mL of tri-distilled water+10 g of SDS+5 mL of isopropanol+0.1 mL of concentrated hydrochloric acid) is added in each well and then cultured for 12 h. An OD value is measured by a microplate reader at 570 nm, and an inhibition percent is calculated as follows: [formula]

epidermophyton floccosum = tested on: epidermophyton floccosum
Protocol: as §1

trichophyton rubrum = tested on: trichophyton rubrum
Protocol: as §1

Row | 50% minimum inhibitory concentration (MIC50) for trichophyton mentagrophytes [1] | 50% minimum inhibitory concentration (MIC50) for epidermophyton floccosum (epidermophyton floccosum) | 50% minimum inhibitory concentration (MIC50) for trichophyton rubrum (trichophyton rubrum) | Structure (SMILES)
1 | 0.60 | 0.82 | 0.63 | COc1ccc(-c2cc(=O)c3cc(O)c(OC)c4c3n2OC2OC(C)=C(O)C=C2C4)cc1 (stereo not drawn) [compound of formula I]
2 | 0.70 | 0.65 | 0.63 | CCC(C)n1ncn(-c2ccc(N3CCN(c4ccc(OCC5COC(Cn6cncn6)(c6ccc(Cl)cc6Cl)O5)cc4)CC3)cc2)c1=O (stereo not drawn) [itraconazole]
